Source: patent US9604983B2, “Herbicidal 3-(2-benzyloxyphenyl)-2,4-dihydroxy-1,8-naphthyridine derivatives” (SYNGENTA LIMITED, priority 2013, dated 2017)

Legend:
Assay in all cases: Post-emergence efficacy, glasshouse pot test
Format in all cases: in vivo
Conditions in all cases: post-emergence application at 1000 g/ha; evaluated after 13 days; five point scale
[1] = tested on: Alopecurus myosuroides (ALOMY)
Procedure: (§1) B1 Post-emergence Efficacy Seeds of a variety of test species are sown in standard soil in pots:—Solanum nigrum (SOLNI), Amaranthus retoflexus (AMARE), Setaria faberi (SETFA), Alopecurus myosuroides (ALOMY), Echinochloa crus-galli (ECHCG), Ipomoea hederacea (IPOHE). After 8 days cultivation (post-emergence) under controlled conditions in a glasshouse (at 24/16° C., day/night; 14 hours light; 65% humidity), the plants are sprayed with an aqueous spray solution derived from the formulation of the technical active ingredient in acetone/water (50:50) solution containing 0.5% Tween 20 (polyoxyethelyene sorbitan monolaurate, CAS RN 9005-64-5). Compounds are applied at 1000 g/ha. The test plants are then grown in a glasshouse under controlled conditions in a glasshouse (at 24/16° C., day/night; 14 hours light; 65% humidity) and watered twice daily. After 13 days, the test is evaluated for the percentage damage caused to the plant. The biological activities are shown below in Table 13, on a five point scale (5=80-100%; 4=60-79%; 3=40-59%; 2=20-39%; 1=0-19%).

[2] = tested on: Amaranthus retoflexus (AMARE)
Procedure: as §1

[3] = tested on: Echinochloa crus-galli (ECHCG)
Procedure: as §1

[4] = tested on: Ipomoea hederacea (IPOHE)
Procedure: as §1

Setaria faberi (SETFA) = tested on: Setaria faberi (SETFA)
Procedure: as §1

Solanum nigrum (SOLNI) = tested on: Solanum nigrum (SOLNI)
Procedure: as §1

SMILES: O=c1c(-c2c(F)ccc(Cl)c2OCc2ccccc2)c(O)c2cccnc2n1CC(F)F [Compound 8.001]
- percentage damage caused to the plant, ALOMY [1]: 3 (3=40-59%)
- percentage damage caused to the plant, AMARE [2]: 5 (5=80-100%)
- percentage damage caused to the plant, ECHCG [3]: 3 (3=40-59%)
- percentage damage caused to the plant, IPOHE [4]: 5 (5=80-100%)
- percentage damage caused to the plant, SETFA (Setaria faberi (SETFA)): 1 (1=0-19%)
- percentage damage caused to the plant, SOLNI (Solanum nigrum (SOLNI)): 5 (5=80-100%)

SMILES: COc1ccnc2c1c(O)c(-c1c(F)ccc(Cl)c1OCc1ccccc1)c(=O)n2CC(F)F [Compound 8.002]
- percentage damage caused to the plant, ALOMY [1]: 4 (4=60-79%)
- percentage damage caused to the plant, AMARE [2]: 5 (5=80-100%)
- percentage damage caused to the plant, ECHCG [3]: 4 (4=60-79%)
- percentage damage caused to the plant, IPOHE [4]: 5 (5=80-100%)
- percentage damage caused to the plant, SETFA (Setaria faberi (SETFA)): 4 (4=60-79%)
- percentage damage caused to the plant, SOLNI (Solanum nigrum (SOLNI)): 5 (5=80-100%)

SMILES: O=c1c(-c2c(F)ccc(Cl)c2OCc2ccccc2)c(O)c2nccnc2n1CC(F)F [Compound 8.003]
- percentage damage caused to the plant, ALOMY [1]: 3 (3=40-59%)
- percentage damage caused to the plant, AMARE [2]: 5 (5=80-100%)
- percentage damage caused to the plant, ECHCG [3]: 4 (4=60-79%)
- percentage damage caused to the plant, IPOHE [4]: 5 (5=80-100%)
- percentage damage caused to the plant, SETFA (Setaria faberi (SETFA)): 5 (5=80-100%)
- percentage damage caused to the plant, SOLNI (Solanum nigrum (SOLNI)): 5 (5=80-100%)

SMILES: C#CCn1c(=O)c(-c2cccc(Cl)c2OCc2ccccc2)c(OC(=O)C(C)C)c2cccnc21 [Compound 9.001]
- percentage damage caused to the plant, ALOMY [1]: 1 (1=0-19%)
- percentage damage caused to the plant, AMARE [2]: 3 (3=40-59%)
- percentage damage caused to the plant, ECHCG [3]: 2 (2=20-39%)
- percentage damage caused to the plant, IPOHE [4]: 5 (5=80-100%)
- percentage damage caused to the plant, SETFA (Setaria faberi (SETFA)): 1 (1=0-19%)
- percentage damage caused to the plant, SOLNI (Solanum nigrum (SOLNI)): 5 (5=80-100%)

SMILES: C#CCn1c(=O)c(-c2cccc(Cl)c2OCc2ccccc2)c(OC(=O)C(C)C)c2nccnc21 [Compound 9.003]
- percentage damage caused to the plant, ALOMY [1]: 2 (2=20-39%)
- percentage damage caused to the plant, AMARE [2]: 4 (4=60-79%)
- percentage damage caused to the plant, ECHCG [3]: 5 (5=80-100%)
- percentage damage caused to the plant, IPOHE [4]: 5 (5=80-100%)
- percentage damage caused to the plant, SETFA (Setaria faberi (SETFA)): 5 (5=80-100%)
- percentage damage caused to the plant, SOLNI (Solanum nigrum (SOLNI)): 5 (5=80-100%)

SMILES: C#CCn1c(=O)c(-c2cccc(Cl)c2OCc2ccccc2)c(O)c2cccnc21 [Compound 10.001]
- percentage damage caused to the plant, ALOMY [1]: 1 (1=0-19%)
- percentage damage caused to the plant, AMARE [2]: 4 (4=60-79%)
- percentage damage caused to the plant, ECHCG [3]: 1 (1=0-19%)
- percentage damage caused to the plant, IPOHE [4]: 5 (5=80-100%)
- percentage damage caused to the plant, SETFA (Setaria faberi (SETFA)): 1 (1=0-19%)
- percentage damage caused to the plant, SOLNI (Solanum nigrum (SOLNI)): 5 (5=80-100%)

SMILES: C#CCn1c(=O)c(-c2cccc(Cl)c2OCc2ccccc2)c(O)c2nccnc21 [Compound 10.003]
- percentage damage caused to the plant, ALOMY [1]: 4 (4=60-79%)
- percentage damage caused to the plant, AMARE [2]: 5 (5=80-100%)
- percentage damage caused to the plant, ECHCG [3]: 5 (5=80-100%)
- percentage damage caused to the plant, IPOHE [4]: 5 (5=80-100%)
- percentage damage caused to the plant, SETFA (Setaria faberi (SETFA)): 5 (5=80-100%)
- percentage damage caused to the plant, SOLNI (Solanum nigrum (SOLNI)): 5 (5=80-100%)

SMILES: CC(C)C(=O)Oc1c(-c2cccc(Cl)c2OCc2ccccc2)c(=O)n(CC(F)F)c2ncccc12 [Compound 11.001]
- percentage damage caused to the plant, ALOMY [1]: 1 (1=0-19%)
- percentage damage caused to the plant, AMARE [2]: 5 (5=80-100%)
- percentage damage caused to the plant, ECHCG [3]: 1 (1=0-19%)
- percentage damage caused to the plant, IPOHE [4]: 5 (5=80-100%)
- percentage damage caused to the plant, SETFA (Setaria faberi (SETFA)): 1 (1=0-19%)
- percentage damage caused to the plant, SOLNI (Solanum nigrum (SOLNI)): 5 (5=80-100%)

SMILES: CC(C)C(=O)Oc1c(-c2cccc(Cl)c2OCc2ccccc2)c(=O)n(CC(F)F)c2nccnc12 [Compound 11.003]
- percentage damage caused to the plant, ALOMY [1]: 2 (2=20-39%)
- percentage damage caused to the plant, AMARE [2]: 5 (5=80-100%)
- percentage damage caused to the plant, ECHCG [3]: 5 (5=80-100%)
- percentage damage caused to the plant, IPOHE [4]: 5 (5=80-100%)
- percentage damage caused to the plant, SETFA (Setaria faberi (SETFA)): 5 (5=80-100%)
- percentage damage caused to the plant, SOLNI (Solanum nigrum (SOLNI)): 5 (5=80-100%)

SMILES: O=c1c(-c2cccc(Cl)c2OCc2ccccc2)c(O)c2cccnc2n1CC(F)F [Compound 12.001]
- percentage damage caused to the plant, ALOMY [1]: 1 (1=0-19%)
- percentage damage caused to the plant, AMARE [2]: 5 (5=80-100%)
- percentage damage caused to the plant, ECHCG [3]: 1 (1=0-19%)
- percentage damage caused to the plant, IPOHE [4]: 5 (5=80-100%)
- percentage damage caused to the plant, SETFA (Setaria faberi (SETFA)): 1 (1=0-19%)
- percentage damage caused to the plant, SOLNI (Solanum nigrum (SOLNI)): 5 (5=80-100%)

SMILES: O=c1c(-c2cccc(Cl)c2OCc2ccccc2)c(O)c2nccnc2n1CC(F)F [Compound 12.003]
- percentage damage caused to the plant, ALOMY [1]: 2 (2=20-39%)
- percentage damage caused to the plant, AMARE [2]: 5 (5=80-100%)
- percentage damage caused to the plant, ECHCG [3]: 5 (5=80-100%)
- percentage damage caused to the plant, IPOHE [4]: 5 (5=80-100%)
- percentage damage caused to the plant, SETFA (Setaria faberi (SETFA)): 5 (5=80-100%)
- percentage damage caused to the plant, SOLNI (Solanum nigrum (SOLNI)): 5 (5=80-100%)
